In publication PMC6406907, “A H2AX–CARP-1 Interaction Regulates Apoptosis Signaling Following DNA Damage” (Cancers, 2019):

Tests used:
HeLa cells = assay: Comet assay (DNA damage), HeLa; assay type: cell-based, human; set-up: Olive Tail Moment (Mean) / Tail Moment (Mean): unit not given here; conditions: for percentage of tail DNA and tail moment: 10 μM, 1, 3, 6, 12 h; for Olive Tail Moment (Mean) / Tail Moment (Mean) / %Tail DNA (Mean): 10 µM; for Olive Tail Moment (Mean): control 5.539; for Tail Moment (Mean): control 9.081; for %Tail DNA (Mean): control 28.414, alkaline electrophoresis, Vista Green
Protocol: The DNA damage assay was performed using a comet assay kit 96-well plate (Cell Bio Labs, CA, USA) as per the manufacturer’s instructions. Briefly, the cell suspension was mixed with the low-melting agarose at 1:20 ratio and added to the pre-coated 96 well plate. The cells were then subjected to lysis for 1 h, followed by alkaline electrophoresis. The plate was then washed in 70% ethanol and Vista Green DNA dye was added. The comets were visualized in Zeiss LSM780 Confocal microscope. The images were processed using Zeiss ZEN lite software and the comet parameters were measured using Open comet software.
Adriamycin is well known to induce DNA damage. Given the critical role of CARP-1 in apoptotic signaling by Adriamycin and CFM compounds, and the fact that stress-activated protein kinases (SAPKs) p38 and JNKs are activated in apoptosis signaling by CFM-4.16 [6, 12, 13, 14, 15, 16, 17, 18], we next determined whether CFM-4.16 also provoked DNA damage. We treated MDA-MB-468 and HeLa cells with a 10 μM dose of Adriamycin or CFM-4.16 for 1, 3, 6, and 12 h, followed by assessment of damaged DNA by the comet assay as described in Section 2. The presence of comet-like tails that contain the fragmented cellular DNA is a well-known marker/indicator of apoptosis. We measured the comet parameters such as percentage tail DNA and mean tail moment. […] Of note is the fact that Adriamycin and related anthracyclines intercalate between DNA bases and trap topoisomerase II (TopoII) in the double-strand cleavage form, thus introducing double-strand breaks (DSBs) due to TopoII poisoning. It remains to be clarified whether CFM-4.16 also targets cellular DNA and/or the associated DNA repair complex protein(s) to introduce DNA strand breaks, or activates caspase-activated DNAses to breakdown cellular genomic DNA.
Figure 2 Adriamycin and CFM-4.16 induce DNA damage. Cells were treated with the noted dose of respective compound for indicated time periods. Mean values for percentage tail DNA content (A,C) and Olive tail moment (B,D) for respective cells from control and treatment periods for each compound were measured using software recommended by the manufacturer of the kit for measurement of DNA damage (Cell Bio Labs, CA, USA). The columns in each chart indicate average values for respective treatment condition; bars, SE; * p ≤ 0.05.
Table S1. Adriamycin and CFM-4.16 stimulate DNA Damage in a time-dependent manner. MDA-MB-468 and HeLa cells were with noted dose of respective compound for indicated time periods.
Mean values for % tail DNA, Tail moment, and Olive tail moment for respective cells from control and treatment periods for each compound were measured using software recommended by the manufacturer of the kit for measurement of DNA damage (Cell Bio Labs, San Diego, CA, USA). The p values for each of the parameter are indicated below the mean values in each column for the treatment time period with each compound for both the cell lines.
Adriamycin (10 µM) CFM-4.16 (10 µM)

[1] = tested on: MDA-MB-468 cells expressing EGFP or EGFP-CARP-1 (636–650); assay: Flow cytometric analysis of apoptosis, MDA-MB-468 sublines; assay type: cell-based, human; conditions: 10 μM, 24 h, EGFP vs EGFP-CARP-1 (636–650)-expressing MDA-MB-468

SMILES	percentage of tail DNA and tail moment (HeLa cells)	Olive Tail Moment (Mean) (HeLa cells; 1 h)	Tail Moment (Mean) (HeLa cells; 1 h)	%Tail DNA (Mean) (HeLa cells; 1 h) [%]	Olive Tail Moment (Mean) (HeLa cells; 3 h)	Tail Moment (Mean) (HeLa cells; 3 h)	%Tail DNA (Mean) (HeLa cells; 3 h) [%]	Olive Tail Moment (Mean) (HeLa cells; 6 h)	Tail Moment (Mean) (HeLa cells; 6 h)	%Tail DNA (Mean) (HeLa cells; 6 h) [%]	Olive Tail Moment (Mean) (HeLa cells; 12 h)	Tail Moment (Mean) (HeLa cells; 12 h)	%Tail DNA (Mean) (HeLa cells; 12 h) [%]	cells undergoing apoptosis [1]
COc1cccc2c1C(=O)c1c(O)c3c(c(O)c1C2=O)C[C@@](O)(C(=O)CO)C[C@@H]3O[C@H]1C[C@H](N)[C@H](O)[C@H](C)O1 [Adriamycin, doxorubicin, reference compound]	significantly increased	18.8	32.09	40.8	39.9	61.8	76.74	47.9	79.11	84.98	60.49	102.2	93.4	generally higher percentage of EGFP-expressing cells undergoing apoptosis
O=C1N(Cc2ccccc2Cl)c2ccccc2C12NN=C(c1cccc(Cl)c1)S2 (stereo not shown) [CFM-4.16]	significantly increased	10.9	16.526	27.297	15.4	26.7	34.45	32.73	47.54	53.24	41.02	76.03	69.61	generally higher percentage of EGFP-expressing cells undergoing apoptosis
